Target: T1, hTAS1R1 E301A/rTAS1R3 (UniProt Q7RTX1+Q923K1, E301A)
T1 construct: UniProtKB number Q7RTX1–1); The cDNA coding region of rTAS1R3 was synthesized with optimized-codon usage for human expression; expressed in transfected cells; host or cells: HEK293T/17
T1 sequence (Q7RTX1 21-841 E301A): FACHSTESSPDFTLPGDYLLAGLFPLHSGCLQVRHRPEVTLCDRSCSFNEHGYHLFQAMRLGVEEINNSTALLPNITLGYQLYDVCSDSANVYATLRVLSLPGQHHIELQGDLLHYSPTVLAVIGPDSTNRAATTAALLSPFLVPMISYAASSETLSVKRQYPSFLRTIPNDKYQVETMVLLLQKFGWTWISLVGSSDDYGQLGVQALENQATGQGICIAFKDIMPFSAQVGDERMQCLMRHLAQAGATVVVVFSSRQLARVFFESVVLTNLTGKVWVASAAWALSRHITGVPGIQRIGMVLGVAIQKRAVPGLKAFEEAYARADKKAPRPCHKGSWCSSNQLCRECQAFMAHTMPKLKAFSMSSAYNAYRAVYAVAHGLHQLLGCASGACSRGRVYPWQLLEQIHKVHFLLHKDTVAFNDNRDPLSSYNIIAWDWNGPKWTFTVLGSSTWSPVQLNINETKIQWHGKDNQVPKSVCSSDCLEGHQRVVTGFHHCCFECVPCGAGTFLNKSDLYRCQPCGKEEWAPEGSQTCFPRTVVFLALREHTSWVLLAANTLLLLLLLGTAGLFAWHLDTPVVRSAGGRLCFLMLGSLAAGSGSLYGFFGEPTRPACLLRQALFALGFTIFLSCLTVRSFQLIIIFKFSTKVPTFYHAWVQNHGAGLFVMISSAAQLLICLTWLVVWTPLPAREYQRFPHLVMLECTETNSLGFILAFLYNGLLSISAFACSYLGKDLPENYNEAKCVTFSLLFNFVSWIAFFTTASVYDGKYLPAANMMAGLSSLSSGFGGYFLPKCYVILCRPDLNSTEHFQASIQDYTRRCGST
T1 sequence (Q923K1 21-858): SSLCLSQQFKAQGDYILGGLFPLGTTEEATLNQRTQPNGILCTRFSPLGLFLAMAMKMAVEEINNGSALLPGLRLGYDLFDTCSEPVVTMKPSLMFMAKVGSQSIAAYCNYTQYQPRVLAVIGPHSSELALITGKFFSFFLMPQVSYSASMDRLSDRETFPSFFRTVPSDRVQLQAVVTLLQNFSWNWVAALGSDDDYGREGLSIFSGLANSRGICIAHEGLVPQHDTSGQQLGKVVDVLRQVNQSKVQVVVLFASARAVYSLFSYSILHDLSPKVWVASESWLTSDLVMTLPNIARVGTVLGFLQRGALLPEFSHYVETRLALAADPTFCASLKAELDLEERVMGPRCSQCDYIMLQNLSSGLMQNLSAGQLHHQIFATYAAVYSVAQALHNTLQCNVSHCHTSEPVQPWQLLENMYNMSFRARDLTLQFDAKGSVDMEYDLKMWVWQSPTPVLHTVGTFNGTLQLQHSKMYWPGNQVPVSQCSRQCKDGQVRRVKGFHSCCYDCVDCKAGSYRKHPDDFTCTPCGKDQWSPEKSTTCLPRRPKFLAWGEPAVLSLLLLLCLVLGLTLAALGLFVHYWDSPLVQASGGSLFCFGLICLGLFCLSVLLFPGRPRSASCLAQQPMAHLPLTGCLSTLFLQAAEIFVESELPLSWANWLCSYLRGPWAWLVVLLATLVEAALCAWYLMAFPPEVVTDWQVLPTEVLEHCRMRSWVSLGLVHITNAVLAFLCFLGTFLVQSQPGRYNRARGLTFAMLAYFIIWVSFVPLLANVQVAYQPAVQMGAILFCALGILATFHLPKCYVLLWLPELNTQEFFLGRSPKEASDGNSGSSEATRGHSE
Experiment: cell-based
Format: cell-based, human, rat
Conditions: for response to the agonist alone, vs WT: E301A
Source text: Chimeric Gα proteins, such as Gα16Gust44, Gα16Gi3 or Gα15i2, are widely used in the functional expression of TAS1R receptors ([Backes et al., 2015]; [Suess et al., 2015]; [Toda et al., 2021], [Toda et al., 2013], [Toda et al., 2018]; [Zhang et al., 2008]). Chimeric Gα15i2 (([Toda et al., 2013]), Supplementary data) was generated by replacing the last five residues of the C-terminal tail of rat Gα15i2 (EINLL) (UniProt number G3V6N8; https://www.uniprot.org/uniprot/) with the counterpart sequence from human GNAI2 (DCGLF) (UniProt number P04899-1) and cloning into the pcDNA3.1/Hygro vector (Invitrogen, Thermo Fisher Scientific, Illkirch, France) between the HindIII and NotI restriction sites, resulting in the plasmid pcDNA3.1-Gα15i2. Chimeric Gα16Gust44 construct have already been reported ([Raliou et al., 2011]). Briefly, Gα16Gust44 was generated by replacing the C-terminal of Gα16 with the C-terminal 44 residues of gustducin. As previously described, hTAS1R1 was amplified from human fungiform papillae cDNA and cloned and inserted into pcDNA3 (Invitrogen), generating pcDNA3-TAS1R1-WT (wild-type) ([Raliou et al., 2011]). […] The cDNA coding region of rTAS1R3 was synthesized with optimized-codon usage for human expression (Genewiz) and was cloned and inserted into the mammalian pcDNA4/myc-HisA (Invitrogen) expression vector between the EcoRI and NotI restriction sites, resulting in the plasmid pcDNA4-rTAS1R3. […] The sequence integrity of all the plasmid constructs was verified via automated DNA sequencing (Genewiz).
The hTAS1R1 mutants were co-expressed with the rTAS1R3 subunit in HEK293 cells. […] As a control, the functionality of the mutated receptors was checked after stimulation with S807 (Fig. S8), which interacts with TAS1R1-TMD ([Zhang et al., 2008]).

`N[C@@H](CCC(=O)N[C@@H](CS)C(=O)NCC(=O)O)C(=O)O` [GSH, γ-L-glutamyl-L-cysteinyl-glycine] was tested, and the EC50 was greater than 30 mM and the “response to the agonist alone, vs WT” value was “fully abolished”.
`N[C@@H](CCC(=O)O)C(=O)O` [L-Glu, L-glutamic acid, reference compound] was tested, and the “response to the agonist alone, vs WT” value was “completely suppressed”.

— PMC12615753, “Glutathione as a taste modulator: molecular mechanisms of interaction with umami and sweet taste receptors” (Food Chemistry: Molecular Sciences, 2025)
